# Experimental data as given in ChEMBL document CHEMBL3885881, “DrugMatrix”.
# Organism: Rattus norvegicus
# Experiment: DrugMatrix - Regimen: Daily Repeat
# Type: toxicity, organism-based, Sprague-Dawley
# Set-up: regimen Daily Repeat, gender Male, age 6-8 weeks
# Details: in vivo, po, route oral GAVAGE, vehicle 100 % WATER; for ABSOLUTE BASOPHIL / ABSOLUTE EOSINOPHIL / ABSOLUTE LYMPHOCYTE / ABSOLUTE MONOCYTE / ABSOLUTE SEGMENTED NEUTROPHIL / BASOPHIL / EOSINOPHIL / ERYTHROCYTE COUNT / HEMATOCRIT / HEMOGLOBIN / LEUKOCYTE COUNT / LYMPHOCYTE / MEAN CORPUSCULAR HEMOGLOBIN / MEAN CORPUSCULAR HEMOGLOBIN CONCENTRATION / MEAN CORPUSCULAR VOLUME / MONOCYTE / NEUTROPHIL / NUCLEATED RED BLOOD CELLS / PLATELET COUNT: tissue Blood; for ALANINE AMINOTRANSFERASE / ALBUMIN / ALKALINE PHOSPHATASE / ASPARTATE AMINOTRANSFERASE / BLOOD UREA NITROGEN / CARBON DIOXIDE / CHLORIDE / CHOLESTEROL / CREATINE PHOSPHOKINASE / CREATININE / GLUCOSE / LACTATE DEHYDROGENASE / LIPASE / PHOSPHORUS / POTASSIUM / SODIUM / TOTAL BILIRUBIN / TOTAL PROTEIN / URIC ACID: tissue Plasma
# [1] = 0 mg/kg, 72 h, dose level Control, time 3 day
# [2] = 0 mg/kg, 120 h, dose level Control, time 5 day
# [3] = 58 mg/kg, 72 h, dose level Low, time 3 day
structure (smiles),measurement,setting,value
Cc1cn([C@H]2C=C[C@@H](CO)O2)c(=O)[nH]c1=O [STAVUDINE],ABSOLUTE BASOPHIL,[1],0 CELLS/uL
same,ABSOLUTE EOSINOPHIL,[1],0 CELLS/uL
same,ABSOLUTE LYMPHOCYTE,[1],8482.5 CELLS/uL
same,ABSOLUTE MONOCYTE,[1],63.83 CELLS/uL
same,ABSOLUTE SEGMENTED NEUTROPHIL,[1],887 CELLS/uL
same,BASOPHIL,[1],0%
same,EOSINOPHIL,[1],0%
same,ERYTHROCYTE COUNT,[1],5.49 x10E6/uL
same,HEMATOCRIT,[1],34.5%
same,HEMOGLOBIN,[1],13.33 G/DL
same,LEUKOCYTE COUNT,[1],9.43 x10E3/uL
same,LYMPHOCYTE,[1],90.17%
same,MEAN CORPUSCULAR HEMOGLOBIN,[1],24.3 pg
same,MEAN CORPUSCULAR HEMOGLOBIN CONCENTRATION,[1],38.63 G/DL
same,MEAN CORPUSCULAR VOLUME,[1],62.88 fL
same,MONOCYTE,[1],0.67%
same,NEUTROPHIL,[1],9.17%
same,NUCLEATED RED BLOOD CELLS,[1],0.67 /100WBC
same,PLATELET COUNT,[1],1022.83 x10E3/uL
same,ALANINE AMINOTRANSFERASE,[1],50.5 u/L
same,ALBUMIN,[1],4.08 G/DL
same,ALKALINE PHOSPHATASE,[1],368.33 u/L
same,ASPARTATE AMINOTRANSFERASE,[1],87.5 u/L
same,BLOOD UREA NITROGEN,[1],12.83 mg/dL
same,CARBON DIOXIDE,[1],32.83 mmol/L
same,CHLORIDE,[1],99.67 MEQ/L
same,CHOLESTEROL,[1],79.67 mg/dL
same,CREATINE PHOSPHOKINASE,[1],585 u/L
same,CREATININE,[1],0.22 mg/dL
same,GLUCOSE,[1],135.67 mg/dL
same,LACTATE DEHYDROGENASE,[1],171 u/L
same,LIPASE,[1],9.5 u/L
same,PHOSPHORUS,[1],11.18 mg/dL
same,POTASSIUM,[1],6.25 MEQ/L
same,SODIUM,[1],144.87 MEQ/L
same,TOTAL BILIRUBIN,[1],0.2 mg/dL
same,TOTAL PROTEIN,[1],6.08 G/DL
same,URIC ACID,[1],0.65 mg/dL
same,ABSOLUTE BASOPHIL,[2],0 CELLS/uL
same,ABSOLUTE EOSINOPHIL,[2],14.5 CELLS/uL
same,ABSOLUTE LYMPHOCYTE,[2],7596.17 CELLS/uL
same,ABSOLUTE MONOCYTE,[2],69.67 CELLS/uL
same,ABSOLUTE SEGMENTED NEUTROPHIL,[2],503 CELLS/uL
same,BASOPHIL,[2],0%
same,EOSINOPHIL,[2],0.17%
same,ERYTHROCYTE COUNT,[2],5.49 x10E6/uL
same,HEMATOCRIT,[2],34.72%
same,HEMOGLOBIN,[2],13.47 G/DL
same,LEUKOCYTE COUNT,[2],8.18 x10E3/uL
same,LYMPHOCYTE,[2],92.17%
same,MEAN CORPUSCULAR HEMOGLOBIN,[2],24.57 pg
same,MEAN CORPUSCULAR HEMOGLOBIN CONCENTRATION,[2],38.82 G/DL
same,MEAN CORPUSCULAR VOLUME,[2],63.3 fL
same,MONOCYTE,[2],1%
same,NEUTROPHIL,[2],6.67%
same,NUCLEATED RED BLOOD CELLS,[2],0 /100WBC
same,PLATELET COUNT,[2],1141 x10E3/uL
same,ALANINE AMINOTRANSFERASE,[2],48.33 u/L
same,ALBUMIN,[2],4.07 G/DL
same,ALKALINE PHOSPHATASE,[2],395.67 u/L
same,ASPARTATE AMINOTRANSFERASE,[2],85.67 u/L
same,BLOOD UREA NITROGEN,[2],15.83 mg/dL
same,CARBON DIOXIDE,[2],31.33 mmol/L
same,CHLORIDE,[2],100.83 MEQ/L
same,CHOLESTEROL,[2],62.33 mg/dL
same,CREATINE PHOSPHOKINASE,[2],248.33 u/L
same,CREATININE,[2],0.2 mg/dL
same,GLUCOSE,[2],135.67 mg/dL
same,LACTATE DEHYDROGENASE,[2],141.33 u/L
same,LIPASE,[2],9.5 u/L
same,PHOSPHORUS,[2],10.73 mg/dL
same,POTASSIUM,[2],6.07 MEQ/L
same,SODIUM,[2],145.35 MEQ/L
same,TOTAL BILIRUBIN,[2],0.22 mg/dL
same,TOTAL PROTEIN,[2],6.12 G/DL
same,URIC ACID,[2],0.63 mg/dL
same,ABSOLUTE BASOPHIL,[3],0 CELLS/uL
same,ABSOLUTE EOSINOPHIL,[3],22.67 CELLS/uL
same,ABSOLUTE LYMPHOCYTE,[3],7881 CELLS/uL
same,ABSOLUTE MONOCYTE,[3],172.33 CELLS/uL
same,ABSOLUTE SEGMENTED NEUTROPHIL,[3],1024 CELLS/uL
same,BASOPHIL,[3],0%
same,EOSINOPHIL,[3],0.33%
same,ERYTHROCYTE COUNT,[3],5.09 x10E6/uL
same,HEMATOCRIT,[3],32.43%
same,HEMOGLOBIN,[3],12.77 G/DL
same,LEUKOCYTE COUNT,[3],9.1 x10E3/uL
same,LYMPHOCYTE,[3],86.67%
same,MEAN CORPUSCULAR HEMOGLOBIN,[3],25.1 pg
same,MEAN CORPUSCULAR HEMOGLOBIN CONCENTRATION,[3],39.37 G/DL
same,MEAN CORPUSCULAR VOLUME,[3],63.77 fL
same,MONOCYTE,[3],2%
same,NEUTROPHIL,[3],11%
same,NUCLEATED RED BLOOD CELLS,[3],1 /100WBC
same,PLATELET COUNT,[3],1073 x10E3/uL
same,ALANINE AMINOTRANSFERASE,[3],58.67 u/L
same,ALBUMIN,[3],4.17 G/DL
same,ALKALINE PHOSPHATASE,[3],410.33 u/L
same,ASPARTATE AMINOTRANSFERASE,[3],82.67 u/L
same,BLOOD UREA NITROGEN,[3],12 mg/dL
same,CARBON DIOXIDE,[3],33 mmol/L
same,CHLORIDE,[3],99 MEQ/L
same,CHOLESTEROL,[3],75 mg/dL
same,CREATINE PHOSPHOKINASE,[3],267 u/L
same,CREATININE,[3],0.33 mg/dL
same,GLUCOSE,[3],133.33 mg/dL
same,LACTATE DEHYDROGENASE,[3],130.33 u/L
same,LIPASE,[3],10 u/L
same,PHOSPHORUS,[3],11.33 mg/dL
same,POTASSIUM,[3],6.27 MEQ/L
same,SODIUM,[3],145.07 MEQ/L
same,TOTAL BILIRUBIN,[3],0.23 mg/dL
same,TOTAL PROTEIN,[3],6 G/DL
same,URIC ACID,[3],0.77 mg/dL
